Measurements reported in patent US12404318B2, “Combination HBV therapy” (priority 2018, dated 2025).

Columns and labels:
[1] = tested on: HBV (rAAV8-1.3HBV strain ayw, D type); test: Combination therapy study in AAV-HBV mice (Example 1): serum HBsAg and HBV DNA; assay type: in vivo, C57BL/6 mice; settings: AAV/HBV-infected C57BL/6 mice, HBV02 3 mg/kg, HBC34 antibody (HBC34-v7-mu-IgG2a) 15 mg/kg, alone or combined
Description: The mice (C57BL/6 strain) were inoculated with the following amount of rAAV8-1.3HBV strain ayw, D type: 1.0×10^11 viral genomes per mouse in 200 μl volume via tail veins injection. Four weeks after viral inoculation, treatment with test compounds was initiated.
Entecavir was administered orally once per day.

[2] = tested on: HBV genotype C; test: Serum clearance of HBsAg and viral entry inhibition in PXB-Mouse model (Example 3); assay type: in vivo, uPA/SCID mice with transplanted primary human hepatocytes; settings: HBC34 antibody (HBC34-v35-mu-IgG2a) 15 mg/kg, not in combination with the siRNA
Description: An immune-deficient mouse having transplanted human hepatocytes was used to test the effectiveness of a combination therapy with an HBV-specific siRNA and an anti-HBV antibody in clearing HBsAg.
Primary human hepatocytes were transplanted into SCID mice for which mouse hepatocytes had previously been destroyed enzamatically. The mice were T- and B-cell deficient. […] Mice were inoculated via tail vein injection with HBV genotype C at 1.0×10^7 viral genomes per mouse. Treatments began eight weeks post-infection.
HBV-infected mice (n=4 per treatment group) were administered one of seven different treatments: (1) PBS only; (2-4) an anti-HBV antibody (a fully murinized HBC34v35 antibody, HBC34-v35-mu-IgG2a), at one of three doses, administered intraperitoneally twice per week during weeks two and three; or (5-7) an HBV-specific siRNA (HBV02, having an antisense strand of SEQ ID NO:8; see description in Example 1) administered subcutaneously once at the beginning of the study, and the fully murinized HBC34v35, at one of three antibody doses, administered intraperitoneally twice per week during weeks two and three (see Table 7). Mice were sacrificed at week 6.
Serum samples were collected periodically throughout the study, and viral load, HBsAg, and free HBC34 antibody were measured.

[3] = target: HBsAg (Hepatitis B virus genotype D subtype ayw, UniProt P03138); test: Activity measured diagnostically with an immunoassay; assay type: binding, HBV
[4] = target: antigenic loop of HBsAg; test: Binding to HBsAg; design: species or system HBV
[5] = tested on: HBV; test: HBV neutralization; assay type: cell-based; settings: human antibodies against HBsAg
Description: To study and quantitate virus infectivity (or “neutralization”) in the laboratory the person skilled in the art knows various standard “neutralization assays.” For a neutralization assay, animal viruses are typically propagated in cells and/or cell lines. In the context of the present disclosure, for a neutralization assay, cultured cells may be incubated with a fixed amount of HBV in the presence (or absence) of the antibody to be tested. As a readout, the levels of hepatitis B surface antigen (HBsAg) or hepatitis B e antigen (HBeAg) secreted into the cell culture supernatant may be used and/or HBcAg staining may be assessed. In one embodiment of a HBV neutralization assay, cultured cells, for example HepaRG cells, in particular differentiated HepaRG cells, are incubated with a fixed amount of HBV in the presence or absence of the antibody to be tested, for example for 16 hours at 37° C. The incubation may be performed in a medium (e.g., supplemented with 4% PEG 8000). After incubation, cells may be washed and further cultivated. To measure virus infectivity, the levels of hepatitis B surface antigen (HBsAg) and hepatitis B e antigen (HBeAg) secreted into the culture supernatant, e.g., from day 7 to day 11 post-infection, may be determined by enzyme-linked immunosorbent assay (ELISA). Additionally, HBcAg staining may be assessed in an immunofluorescence assay.

| Molecule | Reduction of serum HBV DNA (viral load) relative to the saline control ([1]; FIGS. 2A, 2B) | Reduction of serum HBsAg relative to the saline control ([1]; FIGS. 3A, 3B) [log10] | Serum HBV DNA concentration, antibody monotherapy ([2]; FIG. 9) | Serum HBsAg concentration, antibody monotherapy ([2]; FIG. 10) | Activity as measured diagnostically with an immunoassay [3] [IU/mg] | Affinity of binding to the antigenic loop of HBsAg [4] | HBV genotypes and mutants recognized [4] | Stoichiometry of binding to spherical SVPs ([4]; spherical subviral particles) | Neutralizing activity [5] |
| --- | --- | --- | --- | --- | --- | --- | --- | --- | --- |
| HBC34: human monoclonal antibody against HBsAg antigenic loop; VH SEQ ID NO:53, VL SEQ ID NO:55 | no effect | < 1 | lower | lower | 5000 | high affinity (in the pM range) | all 10 HBV genotypes and 18 mutants | low stoichiometry | high neutralizing activity |
| HBC24: human antibody against HBsAg, VH SEQ ID NO:75, VL SEQ ID NO:76; murinized heavy and light chains SEQ ID NOs:103 and 104 (antibody, V domains shown, Synthetic sequence HBC24 VH; Synthetic sequence HBC24 VL) VH: EVQLLESGGGLVQPGGSLRLSCAASGSTFTKYAMSWVRQAPGKGLEWVASISGSVPGFGIDTYYADSVKGRFTISRDTSKNTLYLQMNSLRAEDTALYYCAKDVGVIGSYYYYAMDVWGQGTAVTVSS VL: EIVLTQSPGTLSLSPGERATLSCRASQGLSSSYLAWYQQKPGQAPRLLIYSASTRATGIPDRFSGSGSGTDFTLTISRLEPEDFAVYYCQQYAYSPRWTFGQGTKVEIK | – | – | – | – | – | – | – | – | high neutralizing activity |
